This note sets out measurements from patent US20150232856A1, “TELOMERASE INHIBITORS FOR USE IN THERAPY” (AGENCY FOR SCIENCE, TECHNOLOGY AND RESEARCH, priority 2012, published 2015).

This assay has as its system p65. Kind of assay: TNFα stimulated nuclear translocation of p65 (nuclear fractions, immunoblot). In kind it is cell-based, human. The following applies: HeLa cells, 2 μM MST-312 or si-hTERT, 48 hrs, 10 ng/ml TNFα 30 min (FIG. 17A). On the procedure: A. HeLa cells were treated with 2 μM MST-312 (lanes 3-4), DMSO (lanes 1-2) or transfected with si-hTERT, si-Cntrl (Lanes 5-8) or infected with TT, Cntrl virus (Lanes 9-12) as indicated. 48 hrs later, cells were stimulated with 10 ng/ml TNFα for 30 min followed by fractionation of nuclear and cytosolic fractions.
The cells were harvested in ice-cold PBS and resuspended in hypotonic lysis buffer (10 mM HEPES pH7.9, 1.5 mM MgCl2, 10 mM KCl, protease and phosphatse inhibitors) and incubated on ice for 4 min. They were, then spun down for 3 min at 4500 rpm and the cytoplasmic fraction aspirated to separate tubes. The pellet was washed with hypotonic buffer once. The nuclear fraction was then lysed in IP lysis (10 mM Tris at pH 8, 170 mM NaCl, 0.5% NP40 and protease inhibitors) buffer on ice for 30 min. The lysate was clarified by centrifugation and 1 mg of each fraction was used for corresponding IP reactions.

Regarding `O=C(Nc1cccc(NC(=O)c2cccc(O)c2O)c1)c1cccc(O)c1O` [MST-312, N,N′-1,3-Phenylenebis-[2,3-dihydroxy-benzamide]], the “TNFα stimulated nuclear translocation of p65” value is recorded as “did not affect”.
